These results are taken from patent US10758534B2 (Vertex Pharmaceuticals Incorporated, priority 2014, dated 2020).

The structures appear in SMILES notation. Bounds are passed on as bounds.

The target of the first experiment is T1, F508del (Homo sapiens, UniProt P13569, DEL508-508).
T1 construct: expressed in transfected cells
T1 sequence (P13569 with tags, fused parts or gaps DEL508-508): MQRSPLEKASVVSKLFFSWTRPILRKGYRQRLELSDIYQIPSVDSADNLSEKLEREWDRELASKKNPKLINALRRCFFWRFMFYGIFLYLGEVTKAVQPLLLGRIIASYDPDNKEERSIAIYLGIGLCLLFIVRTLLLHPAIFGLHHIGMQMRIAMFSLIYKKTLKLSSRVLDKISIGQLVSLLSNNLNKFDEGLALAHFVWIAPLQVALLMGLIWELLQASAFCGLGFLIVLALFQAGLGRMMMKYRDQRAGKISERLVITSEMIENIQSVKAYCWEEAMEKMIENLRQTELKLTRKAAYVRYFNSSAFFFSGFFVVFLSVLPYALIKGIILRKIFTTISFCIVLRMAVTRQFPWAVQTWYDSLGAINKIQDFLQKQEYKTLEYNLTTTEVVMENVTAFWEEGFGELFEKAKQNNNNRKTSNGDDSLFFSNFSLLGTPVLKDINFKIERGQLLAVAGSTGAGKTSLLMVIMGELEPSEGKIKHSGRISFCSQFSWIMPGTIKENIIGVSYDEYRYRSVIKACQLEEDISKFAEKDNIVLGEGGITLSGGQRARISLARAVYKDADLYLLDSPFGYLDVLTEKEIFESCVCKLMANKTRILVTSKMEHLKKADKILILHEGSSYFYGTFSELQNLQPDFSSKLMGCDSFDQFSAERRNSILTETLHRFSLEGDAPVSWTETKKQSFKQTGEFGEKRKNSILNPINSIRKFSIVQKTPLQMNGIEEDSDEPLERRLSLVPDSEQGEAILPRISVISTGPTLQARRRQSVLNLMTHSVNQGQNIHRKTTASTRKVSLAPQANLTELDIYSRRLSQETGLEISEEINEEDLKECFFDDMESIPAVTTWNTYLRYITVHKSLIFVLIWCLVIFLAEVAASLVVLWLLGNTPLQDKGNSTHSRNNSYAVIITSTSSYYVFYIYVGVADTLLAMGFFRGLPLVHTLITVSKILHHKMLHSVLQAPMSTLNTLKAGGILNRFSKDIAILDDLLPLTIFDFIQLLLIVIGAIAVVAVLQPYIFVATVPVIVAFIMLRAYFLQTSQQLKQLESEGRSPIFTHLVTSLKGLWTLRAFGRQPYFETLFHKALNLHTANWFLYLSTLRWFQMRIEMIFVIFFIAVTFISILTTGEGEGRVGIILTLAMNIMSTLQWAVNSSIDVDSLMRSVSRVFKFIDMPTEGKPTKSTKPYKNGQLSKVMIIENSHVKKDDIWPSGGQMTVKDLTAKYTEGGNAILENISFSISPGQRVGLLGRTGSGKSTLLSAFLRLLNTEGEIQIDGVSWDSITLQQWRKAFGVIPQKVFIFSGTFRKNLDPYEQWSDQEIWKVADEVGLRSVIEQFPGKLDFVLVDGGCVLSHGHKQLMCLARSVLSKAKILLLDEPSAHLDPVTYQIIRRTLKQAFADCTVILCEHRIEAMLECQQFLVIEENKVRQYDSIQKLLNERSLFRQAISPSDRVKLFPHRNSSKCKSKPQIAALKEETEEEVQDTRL
Nature of the experiment: Protocol 2: FRET membrane potential optical assay (VIPR), identification of correction compounds. Format: cell-based. The note with it: F508del CFTR modulator activity; compounds of Table 1; read-out: EC30. The essentials:
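FRET read-out (CC2-DMPE donor, DiSBAC2(3) voltage-sensitive acceptor) of membrane depolarization on VIPR II. Corrector candidates incubated 16 hrs at 37° C. with NIH3T3 cells expressing F508del; temperature correction at 27° C. as positive control; stimulation by 10 μM forskolin, 20 μM genistein, chloride-free gluconate bath.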
As for `Cc1cc(-c2ccc(C(=O)NS(=O)(=O)c3cccc(N)n3)c(N3C[C@@H](C)CC3(C)C)n2)cnc1NC(C)C` [Compound 2685], the EC30 was < 3000 nM. The same measure, in the same setting: as for `CC1CN(c2ncccc2C(=O)NS(=O)(=O)c2cccc(Nc3ccc(C(F)(F)F)nc3)n2)C(C)(C)C1` (stereo not drawn) [Compound 2466, N—[[6-[[6-(trifluoromethyl)-3-pyridyl]amino]-2-pyridyl]sulfonyl]-2-(2,2,4-trimethylpyrrolidin-1-yl)pyridine-3-carboxamide], the figure is < 3000 nM; as for `C[C@@H]1CN(c2nc(-c3ccc4cc(O)ccc4c3)ccc2C(=O)NS(=O)(=O)c2cccnc2N)C(C)(C)C1` [Compound 2468, N-[(2-amino-3-pyridyl)sulfonyl]-6-(6-hydroxy-2-naphthyl)-2-[(4S)-2,2,4-trimethylpyrrolidin-1-yl]pyridine-3-carboxamide], < 3000 nM; as for `Cc1cccc(N2CCN(c3cccc(S(=O)(=O)NC(=O)c4cccnc4N4CC(C)CC4(C)C)n3)CC2)n1` (stereo not drawn) [Compound 2285, N—[[6-[4-(6-methyl-2-pyridyl)piperazin-1-yl]-2-pyridyl]sulfonyl]-2-(2,2,4-trimethylpyrrolidin-1-yl)pyridine-3-carboxamide], < 3000 nM.

Turning to `CC1CN(c2ncccc2C(=O)NS(=O)(=O)c2cccc(Nc3cccc4ccccc34)n2)C(C)(C)C1` (stereo not drawn) [Compound 2136, N—[[6-(1-naphthylamino)-2-pyridyl]sulfonyl]-2-(2,2,4-trimethylpyrrolidin-1-yl)pyridine-3-carboxamide], the 30% effect concentration (EC30) was < 3000 nM. Same read-out and setting: then `CC1CN(c2ncccc2C(=O)NS(=O)(=O)c2cccc(Oc3cccc(C(F)(F)F)c3)n2)C(C)(C)C1` (stereo not drawn) [Compound 2718], with < 3000 nM. The same measure, in the same setting: then `CC(C)COc1cc(F)cc(-c2ccc(C(=O)NS(=O)(=O)c3cccc(N)n3)c(N3CC4CC(C3)C4C)n2)c1` (stereo not drawn) [Compound 2224, N-[(6-amino-2-pyridyl)sulfonyl]-6-(3-fluoro-5-isobutoxy-phenyl)-2-(6-methyl-3-azabicyclo[3.1.1]heptan-3-yl)pyridine-3-carboxamide], with < 3000 nM; and `CC(C)COc1cc(F)cc(-c2ccc(C(=O)NS(=O)(=O)c3cccc(N)n3)c(N3CCC(C)CC3(C)C)n2)c1` (stereo not drawn) [Compound 2581, N-[(6-amino-2-pyridyl)sulfonyl]-6-(3-fluoro-5-isobutoxy-phenyl)-2-(2,2,4-trimethyl-1-piperidyl)pyridine-3-carboxamide], with < 3000 nM. On the same count and under the same terms, as for `C[C@@H]1CN(c2nc(-c3ccc(OC(F)(F)F)cc3)ccc2C(=O)NS(=O)(=O)c2ccc[nH]c2=O)C(C)(C)C1` [Compound 2234, N-[(2-oxo-1H-pyridin-3-yl)sulfonyl]-6-[4-(trifluoromethoxy)phenyl]-2-[(4S)-2,2,4-trimethylpyrrolidin-1-yl]pyridine-3-carboxamide], the figure is < 3000 nM; as for `CC(CO)COc1ccn(-c2ccc(C(=O)NS(=O)(=O)c3cccnc3N)c(N3C[C@@H](C)CC3(C)C)n2)n1` (stereo partly drawn) [Compound 2192, N-[(2-amino-3-pyridyl)sulfonyl]-6-[3-(3-hydroxy-2-methyl-propoxy)pyrazol-1-yl]-2-[(4S)-2,2,4-trimethylpyrrolidin-1-yl]pyridine-3-carboxamide], < 3000 nM; as for `COc1ccc(-c2ccc(C(=O)NS(=O)(=O)c3ccc[nH]c3=O)c(N3C[C@@H](C)CC3(C)C)n2)c(C)c1` [Compound 2469, 6-(4-methoxy-2-methyl-phenyl)-N-[(2-oxo-1H-pyridin-3-yl)sulfonyl]-2-[(4S)-2,2,4-trimethylpyrrolidin-1-yl]pyridine-3-carboxamide], 3000 to 10000 nM.

For the compound `CC(C)Oc1cccc(-c2ccc(C(=O)NS(=O)(=O)c3cccnc3N)c(N3C[C@@H](C)CC3(C)C)n2)c1` [Compound 2515, N-[(2-amino-3-pyridyl)sulfonyl]-6-(3-isopropoxyphenyl)-2-[(4S)-2,2,4-trimethylpyrrolidin-1-yl]pyridine-3-carboxamide], the 30% effect concentration (EC30) was < 3000 nM.

In the case of `CC(C)Cn1ccc(-c2ccc(C(=O)NS(=O)(=O)c3cccc(N)n3)c(N3C[C@@H](C)CC3(C)C)n2)n1` [Compound 2114, N-[(6-amino-2-pyridyl)sulfonyl]-6-(1-isobutylpyrazol-3-yl)-2-[(4S)-2,2,4-trimethylpyrrolidin-1-yl]pyridine-3-carboxamide], the EC30 is < 3000 nM.

The experiment is the same for the next values; noted with them: Table 3; compounds of Table 1 as modulators of CFTR activity; protocol not stated.
Take `CCOc1cccc(-c2cc(C(=O)NS(=O)(=O)c3ccccc3)n(Cc3c(C)cccc3C)n2)c1` [Compound 280, N-(benzenesulfonyl)-2-[(2,6-dimethylphenyl)methyl]-5-(3-ethoxyphenyl)pyrazole-3-carboxamide]: the 30% effect concentration (EC30) entry is “+++ (“+++” means <3 uM)”. For `Cc1cc(C)c(Oc2nc(C(C)(C)C)ccc2C(=O)NS(=O)(=O)c2cccc(C(=O)O)c2)c(C)c1` [Compound 205, 3-[[6-tert-butyl-2-(2,4,6-trimethylphenoxy)pyridine-3-carbonyl]sulfamoyl]benzoic acid], the concentration for an effect of 30% (EC30) entry is “++ (“++” means between 3 uM and 10 uM)”. On the same count and under the same terms, then `COc1ncc(-c2ccc(C(=O)NS(=O)(=O)c3cccc(N)n3)c(Oc3c(C)cc(C)cc3C)n2)c(OC)n1` [Compound 499, N-[(6-amino-2-pyridyl)sulfonyl]-6-(2,4-dimethoxypyrimidin-5-yl)-2-(2,4,6-trimethylphenoxy)pyridine-3-carboxamide], with “++ (“++” means between 3 uM and 10 uM)”. Still for that read-out and setting: then `Cc1cc(C)c(Oc2nc(-c3ccc(Cl)cc3F)ccc2C(=O)NS(=O)(=O)c2cccc(N)n2)c(C)c1` [Compound 207, N-[(6-amino-2-pyridyl)sulfonyl]-6-(4-chloro-2-fluoro-phenyl)-2-(2,4,6-trimethylphenoxy)pyridine-3-carboxamide], with “+++ (“+++” means <3 uM)”; and `Cc1cccc(-c2ccc(C(=O)NS(=O)(=O)c3cccc(N)n3)c(Oc3c(C)cc(C)cc3C)n2)c1` [Compound 672, N-[(6-amino-2-pyridyl)sulfonyl]-6-(m-tolyl)-2-(2,4,6-trimethylphenoxy)pyridine-3-carboxamide], with “+++ (“+++” means <3 uM)”; and `CC1CCN(c2nc(C(C)(C)C)ccc2C(=O)NS(=O)(=O)c2cccc(N)n2)CC1` [Compound 794, N-[(6-amino-2-pyridyl)sulfonyl]-6-tert-butyl-2-(4-methyl-1-piperidyl)pyridine-3-carboxamide], with “+++ (“+++” means <3 uM)”. On the same count and under the same terms, as for `COc1ncccc1S(=O)(=O)NC(=O)c1cc2c(nc1Oc1c(C)cc(C)cc1C)C(C)(C)CCC2` [Compound 423, N-[(2-methoxy-3-pyridyl)sulfonyl]-8,8-dimethyl-2-(2,4,6-trimethylphenoxy)-6,7-dihydro-5H-quinoline-3-carboxamide], the entry is “+++ (“+++” means <3 uM)”; as for `Cc1cc(C)c(Oc2nc(C(C)(C)C)ccc2C(=O)NS(=O)(=O)c2cccc(N)c2)c(C#N)c1` [Compound 221, N-(3-aminophenyl)sulfonyl-6-tert-butyl-2-(2-cyano-4,6-dimethyl-phenoxy)pyridine-3-carboxamide], “+++ (“+++” means <3 uM)”; as for `CC(C)(C)c1ccc(C(=O)NS(=O)(=O)c2ccc(N)cc2)c(N2CCCCC2)n1` [Compound 753, N-(4-aminophenyl)sulfonyl-6-tert-butyl-2-(1-piperidyl)pyridine-3-carboxamide], “++ (“++” means between 3 uM and 10 uM)”. For `CC(C)COc1cc(F)cc(-c2ccc(C(=O)NS(=O)(=O)c3ccn[nH]3)c(N3CCCCC3C)n2)c1` (stereo not drawn) [Compound 442, 6-(3-fluoro-5-isobutoxy-phenyl)-2-(2-methyl-1-piperidyl)-N-(1H-pyrazol-5-ylsulfonyl)pyridine-3-carboxamide], the 30% effect concentration (EC30) result was “+++ (“+++” means <3 uM)”.

For `Cc1cc(C)c(Oc2nc(-c3cccc(CN4CCCCC4)c3)ccc2C(=O)NS(=O)(=O)c2cccc(N)n2)c(C)c1` [Compound 686, N-[(6-amino-2-pyridyl)sulfonyl]-6-[13-(1-piperidylmethyl)phenyl]-2-(2,4,6-trimethylphenoxy)pyridine-3-carboxamide], the 30% effect concentration (EC30) result is recorded as “+++ (“+++” means <3 uM)”. Still for that read-out and setting: then `COc1cccc2c1cc(C(=O)NS(=O)(=O)c1ccccc1)n2Cc1c(C)cccc1C` [Compound 290, N-(benzenesulfonyl)-1-[(2,6-dimethylphenyl)methyl]-4-methoxy-indole-2-carboxamide], with “+++ (“+++” means <3 uM)”; and `CC(C)c1ccc(-c2ccc(C(=O)NS(=O)(=O)c3ccn[nH]3)c(N3[C@H](C)CC[C@@H]3C)n2)cc1` [Compound 414, 2-[(2S,5R)-2,5-dimethylpyrrolidin-1-yl]-6-(4-isopropylphenyl)-N-(1H-pyrazol-5-ylsulfonyl)pyridine-3-carboxamide], with “+++ (“+++” means <3 uM)”; and `Cn1ccc2cccc(Oc3nc(C(C)(C)C)ccc3C(=O)NS(=O)(=O)c3ccccc3)c21` [Compound 326, N-(benzenesulfonyl)-6-tert-butyl-2-(1-methylindol-7-yl)oxy-pyridine-3-carboxamide], with “+++ (“+++” means <3 uM)”. Regarding `CCOc1ncccc1-c1ccc(C(=O)NS(=O)(=O)c2cccc(N)n2)c(Oc2c(C)cc(C)cc2C)n1` [Compound 718, N-[(6-amino-2-pyridyl)sulfonyl]-6-(2-ethoxy-3-pyridyl)-2-(2,4,6-trimethylphenoxy)pyridine-3-carboxamide], the 30% effect concentration (EC30) result is on record as “+++ (“+++” means <3 uM)”. Still for that read-out and setting: as for `Cc1cccc(C)c1Cn1nc(-c2cccc(CN3CCOCC3)c2)cc1C(=O)NS(=O)(=O)c1ccccc1` [Compound 302, N-(benzenesulfonyl)-2-[(2,6-dimethylphenyl)methyl]-5-[3-(morpholinomethyl)phenyl]pyrazole-3-carboxamide], the entry is “++ (“++” means between 3 uM and 10 uM)”; as for `CC(C)(C)c1ccc(C(=O)NS(=O)(=O)c2cccc(N)n2)c(N2CCCCC2)n1` [Compound 571, N-[(6-amino-2-pyridyl)sulfonyl]-6-tert-butyl-2-(1-piperidyl)pyridine-3-carboxamide], “++ (“++” means between 3 uM and 10 uM)”.

As a reminder, the EC30 is the concentration at which the effect reaches the 30% level.
